For series [1] the following is noted: human, microsomes, 1 h.
Series [2] is described as follows: Metabolic stability in human plasma assessed as parent compound remaining after 30 mins by LC/MS/MS method. In kind it is ADME, cell-free. As to conditions: 0.5 h.
For series [3] the following is noted: human, microsomes, 1 h. The source holds these as a separate data set.
The nature of series [4]: Binding affinity to HIV1 NL4-3 capsid protein hexamer assessed as dissociation constant by SPR analysis. Also noted: species or system Human immunodeficiency virus 1. In general terms: In SPR one partner is held on a chip, and binding of the other changes the refractive index at the surface.
The test system of series [5] is Human immunodeficiency virus 1. Nature of the series: Antiviral activity against HIV1 NL4-3 Env-deficient pseudotype virus infected in human U87/CD4/CCR5 cells assessed by reduction in viral production in early stage measured after 48 hrs by luciferase activity based single-round infection assay. In kind it is functional, organism-based. As to conditions: Human immunodeficiency virus 1, NL4-3, U87/CD4/CCR5, 48 h.

A short description of series [6]: in vitro. As to conditions: human, TZM-bl cells.
Description: Selectivity index, ratio of CC50 for human TZM-bl cells to EC50 for HIV1 NL4-3 infected in human TZM-bl cells
The subject of series [7] is U87/CD4/CCR5. Nature of the series: Effect on HIV1 NL4-3 capsid protein assembly at 50 uM measured every 1 min for 19 mins by Spectrophotometer method. As to conditions: Human immunodeficiency virus 1.
Series [8] in a line: Metabolic stability in human plasma assessed as parent compound remaining after 10 mins by LC/MS/MS method. In kind it is ADME, cell-free.
Series [9] in a line: Metabolic stability in human plasma assessed as parent compound remaining after 120 mins by LC/MS/MS method. Type of series: ADME, cell-free. The conditions noted are these: 2 h.
Series [10] concerns Human immunodeficiency virus 1. Nature of the series: Antiviral activity against HIV1 NL4-3 Env-deficient pseudotype virus infected in human U87/CD4/CCR5 cells assessed by reduction in viral production in late stage measured after 48 hrs by luciferase activity based single-round infection assay. In kind it is functional, organism-based. As to conditions: Human immunodeficiency virus 1, NL4-3, U87/CD4/CCR5, 48 h.

Series [11] is described as follows: Metabolic stability in human plasma assessed as parent compound remaining after 60 mins by LC/MS/MS method. As to conditions: 1 h. Type of series: ADME, cell-free.
The nature of series [12]: in vitro. As to conditions: human, liver microsomes.
Description: Metabolic stability in human liver microsomes assessed as parent compound remaining in presence of NADPH after 1 hr by LC/MS/MS method
For series [13] the following is noted: human, microsomes, 1 h. This is another data set of the same source.
Description: Metabolic stability in human liver microsomes assessed as parent compound remaining in absence of NADPH after 1 hr by LC/MS/MS method
Series [14] can be described thus: Binding affinity to HIV1 NL4-3 capsid protein monomer assessed as dissociation constant by SPR analysis. Also noted: species or system Human immunodeficiency virus 1.
For another series, the system named is TZM. Nature of the series: Cytotoxicity against in human TZM-bl cells assessed as reduction in cell viability measured after 2 days by CytoTox-Glo cytotoxicity assay. The conditions noted are these: 48 h.
The test system of series [15] is Human immunodeficiency virus 1. Nature of the series: Antiviral activity against HIV1 NL4-3 infected in human TZM-bl cells assessed as reduction in virus induced cytopathic effect measured after 2 days by luciferase gene expression assay. Type of series: functional, organism-based. As to conditions: Human immunodeficiency virus 1, NL4-3, TZM-bl, 48 h. (In general: Protection from cytopathic effect is a common read-out in antiviral testing.)

The test system of series [16] is Human immunodeficiency virus 1. As to the kind of experiment: Antiviral activity against HIV1 NL4-3 Env-pseudotype virus in human U87/CD4/CCR5 cells assessed as reduction in p24 production at 10 uM by ELISA reader relative to control. Type of series: functional.
The test system of series [17] is U87/CD4/CCR5. Nature of the series: Induction of HIV1 NL4-3 capsid protein assembly at 50 uM measured every 1 min for 19 mins by Spectrophotometer method. The conditions noted are these: Human immunodeficiency virus 1.

Active and inactive are the calls of the source. The calls are words filed in the database; no cut-off is given here.

A word on the Kd: it is a measure of binding affinity in units of concentration. Broadly, the IC50 is the concentration that gives 50% inhibition. A word on the share remaining: it is the share of the starting amount still present when the sample was taken. Read a high share remaining as less turnover. What is called CC50 is the concentration that lowers cell viability or growth by half. For orientation: EC50 means the concentration at which the effect is half-maximal. Broadly, the inhibition is the share of the control response that was lost under treatment. Turning to `COc1ccc(N(C)C(=O)[C@H](Cc2ccccc2)NC(=O)Cn2cc(-c3ccccc3NC(=O)c3ccccc3F)nn2)cc1`, the CLH in [1] is 1559.4 µL/min/mg. In addition, the Stabilty in [2] is given as 94.6%; in series [8] it was 91.3%; in series [9], 107.4%; in [11], 86.9%; in series [13], 122.1%. Further, in series [3], the t1/2 is 54 s. For the same compound, the Kd in [4] is 6.04 µM; in [14], 7.95 µM. For the same compound, the IC50 in series [5] was found to be 8.18 µM; in series [10], 0.32 µM. In the series “in vitro [6]”, the selectivity ratio was greater than 5.27. Besides, the result with U87/CD4/CCR5 [7] was inactive. The fraction remaining at 1 h in “in vitro [12]” was determined as 0.3%. In addition, the CC50 in the series on TZM is greater than 16.5 µM. Further, the EC50 in series [15] was found to be 3.13 µM. Moreover, the inhibition at 10 µM in series [16] (Human immunodeficiency virus 1, NL4-3, U87/CD4/CCR5) worked out at 15%.

In series [1], `Cc1[nH]c2ccccc2c1CC(=O)N[C@@H](Cc1ccccc1)C(=O)N(C)c1ccccc1` displayed a CLH of 2403 µL/min/mg. The Stabilty in [2] turned out to be 83.4%; in [8], 87.3%; in series [9], 85.6%; in series [11], 86.5%. In addition, the IC50 in series [5] was determined as 0.056 µM; in series [10] it was 0.23 µM. Besides, the outcome in the series on U87/CD4/CCR5 [17] was Active. The Kd in series [14] was 2.4 µM. For the same compound, the CC50 with TZM was greater than 23.5 µM. The EC50 in series [15] turned out to be 0.28 µM. The inhibition result in [16] was “Active”.
